Experiments:
[1] = test system: MCF-7 (human breast adenocarcinoma) cells; test: MTT cytotoxicity assay, MCF-7; type: cell-based; details: for viability at 10 µM: MCF7, 10 µM, 48 h exposure, read-out: % Cell Viability at 10 µM MCF-7; for IC50: 48 h
Protocol: (§1) The cytotoxicity activity of all the conjugates (6aa–6df) was evaluated in vitro by MTT assay against two different breast cancer cell lines 4T1 (murine) and MCF-7 (human) and HEK 293 (human) as normal cell line. DTX was used as positive control. Cells were grown in DMEM supplemented with 10% FBS and 1% antibiotic solution and incubated at 5% CO2 and 37 °C for 24 h. The stock solutions of all the conjugates were prepared in DMSO and diluted for further use. Briefly, 5 × 10^3 cells/well were seeded in 96-well cell culture plates and allowed to adhere for 24 h. Cell inhibition (%) was determined after 48 h exposure to the compounds at 1–25 μM concentration. After 48 h, MTT assay was performed and the yellow tetrazolium salt (MTT) was reduced in metabolically active cells to form insoluble purple formazan crystals, which were solubilized by the addition of DMSO. The optical density (OD) was recorded at 560 nm and 630 nm as reference wavelength. Percentage cell inhibition was determined by comparison with untreated cells.

[2] = test system: 4T1 (mouse mammary carcinoma) cells; test: MTT cytotoxicity assay, 4T1; type: cell-based; details: for viability at 10 µM: 48 h exposure, read-out: % Cell Viability at 10 µM 4T1; for IC50: 48 h
Protocol: as §1

[3] = MTT cytotoxicity assay, normal cell line HEK 293; type: cell-based; details: human, HEK 293 cells, HEK 293 normal cells, 48 h exposure
Protocol: as §1

Row | SMILES | viability at 10 µM ([1]; Homo sapiens) [%] | viability at 10 µM ([2]; Mus musculus) [%] | viability at 48 h, 10 µM [3] [%] | melting point [°C] | IC50 [1] [µM] | IC50 ([1]; Homo sapiens, MCF7, 48 h) [µM] | IC50 [2] [µM] | IC50 ([2]; Mus musculus) [µM]
1 | C[C@H](CCC(=O)OCc1cn(CC(=O)c2ccccc2)nn1)C1CCC2C3C(C[C@H](O)[C@@]21C)[C@@]1(C)CC[C@@H](O)CC1C[C@H]3O (stereo partly drawn) [6aa, (1-(2-Oxo-2-phenylethyl)-1H-1,2,3-triazol-4-yl)methyl (4R)-4-((3R,7R,10S,12S,13R)-3,7,12-trihydroxy-10,13-dimethylhexadecahydro-1H-cyclopenta[a]phenanthren-17-yl)pentanoate] | 77.3 | 74.3 | 86.1 | 108 to 109 | – | – | – | –
2 | Cc1ccc(C(=O)Cn2cc(COC(=O)CC[C@@H](C)C3CCC4C5C(C[C@H](O)[C@@]43C)[C@@]3(C)CC[C@@H](O)CC3C[C@H]5O)nn2)cc1 (stereo partly drawn) [6ab, (1-(2-Oxo-2-(p-tolyl)ethyl)-1H-1,2,3-triazol-4-yl)methyl (4R)-4-((3R,7R,10S,12S,13R)-3,7,12-trihydroxy-10,13-dimethylhexadecahydro-1H-cyclopenta[a]phenanthren-17-yl)pentanoate] | 57.4 | 72.9 | 87.6 | – | – | – | – | –
3 | COc1ccc(C(=O)Cn2cc(COC(=O)CC[C@@H](C)C3CCC4C5C(C[C@H](O)[C@@]43C)[C@@]3(C)CC[C@@H](O)CC3C[C@H]5O)nn2)cc1 (stereo partly drawn) [6ac, (1-(2-(4-Methoxyphenyl)-2-oxoethyl)-1H-1,2,3-triazol-4-yl)methyl (4R)-4-((3R,7R,10S,12S,13R)-3,7,12-trihydroxy-10,13-dimethylhexadecahydro-1H-cyclopenta[a]phenanthren-17-yl)pentanoate] | 55.6 | 80 | 87.9 | 176 to 177 | – | – | – | –
4 | C[C@H](CCC(=O)OCc1cn(CC(=O)c2ccc(F)cc2)nn1)C1CCC2C3C(C[C@H](O)[C@@]21C)[C@@]1(C)CC[C@@H](O)CC1C[C@H]3O (stereo partly drawn) [6ad, (1-(2-(4-Fluorophenyl)-2-oxoethyl)-1H-1,2,3-triazol-4-yl)methyl (4R)-4-((3R,7R,10S,12S,13R)-3,7,12-trihydroxy-10,13-dimethylhexadecahydro-1H-cyclopenta[a]phenanthren-17-yl)pentanoate] | 66.5 | 47.7 | 86.8 | 152 to 153 | – | – | – | –
5 | C[C@H](CCC(=O)OCc1cn(CC(=O)c2ccc(Cl)cc2)nn1)C1CCC2C3C(C[C@H](O)[C@@]21C)[C@@]1(C)CC[C@@H](O)CC1C[C@H]3O (stereo partly drawn) [6ae, (1-(2-(4-Chlorophenyl)-2-oxoethyl)-1H-1,2,3-triazol-4-yl)methyl (4R)-4-((3R,7R,10S,12S,13R)-3,7,12-trihydroxy-10,13-dimethylhexadecahydro-1H-cyclopenta[a]phenanthren-17-yl)pentanoate] | 79.6 | 58.9 | 96.2 | 153 to 154 | – | – | – | –
6 | C[C@H](CCC(=O)OCc1cn(CC(=O)c2ccccc2)nn1)C1CCC2C3CCC4C[C@H](O)CC[C@]4(C)C3C[C@H](O)[C@@]21C (stereo partly drawn) [6ba, (1-(2-Oxo-2-phenylethyl)-1H-1,2,3-triazol-4-yl)methyl (4R)-4-((3R,10S,12S,13R)-3,12-dihydroxy-10,13-dimethylhexadecahydro-1H-cyclopenta[a]phenanthren-17-yl)pentanoate] | 91.9 | 97.8 | 88.9 | 143 to 144 | – | – | – | –
7 | Cc1ccc(C(=O)Cn2cc(COC(=O)CC[C@@H](C)C3CCC4C5CCC6C[C@H](O)CC[C@]6(C)C5C[C@H](O)[C@@]43C)nn2)cc1 (stereo partly drawn) [6bb, (1-(2-Oxo-2-(p-tolyl)ethyl)-1H-1,2,3-triazol-4-yl)methyl (4R)-4-((3R,10S,12S,13R)-3,12-dihydroxy-10,13-dimethylhexadecahydro-1H-cyclopenta[a]phenanthren-17-yl)pentanoate] | 67.6 | 85.7 | 89.2 | 123 to 125 | – | – | – | –
8 | COc1ccc(C(=O)Cn2cc(COC(=O)CC[C@@H](C)C3CCC4C5CCC6C[C@H](O)CC[C@]6(C)C5C[C@H](O)[C@@]43C)nn2)cc1 (stereo partly drawn) [6bc, (1-(2-(4-Methoxyphenyl)-2-oxoethyl)-1H-1,2,3-triazol-4-yl)methyl (4R)-4-((3R,10S,12S,13R)-3,12-dihydroxy-10,13-dimethylhexadecahydro-1H-cyclopenta[a]phenanthren-17-yl)pentanoate] | 69.6 | 68.4 | 90.8 | 144 to 145 | – | – | – | –
9 | C[C@H](CCC(=O)OCc1cn(CC(=O)c2ccc(F)cc2)nn1)C1CCC2C3CCC4C[C@H](O)CC[C@]4(C)C3C[C@H](O)[C@@]21C (stereo partly drawn) [6bd, (1-(2-(4-Fluorophenyl)-2-oxoethyl)-1H-1,2,3-triazol-4-yl)methyl (4R)-4-((3R,10S,12S,13R)-3,12-dihydroxy-10,13-dimethylhexadecahydro-1H-cyclopenta[a]phenanthren-17-yl)pentanoate] | 79.6 | 52.4 | 89.4 | 127 to 128 | – | – | – | –
10 | C[C@H](CCC(=O)OCc1cn(CC(=O)c2ccc(Cl)cc2)nn1)C1CCC2C3CCC4C[C@H](O)CC[C@]4(C)C3C[C@H](O)[C@@]21C (stereo partly drawn) [6be, (1-(2-(4-Chlorophenyl)-2-oxoethyl)-1H-1,2,3-triazol-4-yl)methyl (4R)-4-((3R,10S,12S,13R)-3,12-dihydroxy-10,13-dimethylhexadecahydro-1H-cyclopenta[a]phenanthren-17-yl)pentanoate] | 68.5 | 76 | 88.4 | 92 to 93 | – | – | – | –
11 | C[C@H](CCC(=O)OCc1cn(CC(=O)c2ccc(Br)cc2)nn1)C1CCC2C3CCC4C[C@H](O)CC[C@]4(C)C3C[C@H](O)[C@@]21C (stereo partly drawn) [6bf, (1-(2-(4-Bromophenyl)-2-oxoethyl)-1H-1,2,3-triazol-4-yl)methyl (4R)-4-((3R,10S,12S,13R)-3,12-dihydroxy-10,13-dimethylhexadecahydro-1H-cyclopenta[a]phenanthren-17-yl)pentanoate] | 44.4 | 60.9 | 86.8 | 176 to 177 | 18.3 ± 1.48 | < 19 | 9.68 ± 1.59 | < 19
12 | C[C@H](CCC(=O)NCc1cn(CC(=O)c2ccccc2)nn1)C1CCC2C3C(C[C@H](O)[C@@]21C)[C@@]1(C)CC[C@@H](O)CC1C[C@H]3O (stereo partly drawn) [6ca, (4R)-N-((1-(2-Oxo-2-phenylethyl)-1H-1,2,3-triazol-4-yl)methyl)-4-((3R,7R,10S,12S,13R)-3,7,12-trihydroxy-10,13-dimethylhexadecahydro-1H-cyclopenta[a]phenanthren-17-yl)pentanamide] | 92.1 | 85.2 | 90.1 | 148 to 149 | – | – | – | –
13 | Cc1ccc(C(=O)Cn2cc(CNC(=O)CC[C@@H](C)C3CCC4C5C(C[C@H](O)[C@@]43C)[C@@]3(C)CC[C@@H](O)CC3C[C@H]5O)nn2)cc1 (stereo partly drawn) [6cb, (4R)-N-((1-(2-Oxo-2-(p-tolyl)ethyl)-1H-1,2,3-triazol-4-yl)methyl)-4-((3R,7R,10S,12S,13R)-3,7,12-trihydroxy-10,13-dimethylhexadecahydro-1H-cyclopenta[a]phenanthren-17-yl)pentanamide] | 61.9 | 96.7 | 86 | 129 to 131 | – | – | – | –
14 | COc1ccc(C(=O)Cn2cc(CNC(=O)CC[C@@H](C)C3CCC4C5C(C[C@H](O)[C@@]43C)[C@@]3(C)CC[C@@H](O)CC3C[C@H]5O)nn2)cc1 (stereo partly drawn) [6cc, (4R)-N-((1-(2-(4-Methoxyphenyl)-2-oxoethyl)-1H-1,2,3-triazol-4-yl)methyl)-4-((3R,7R,10S,12S,13R)-3,7,12-trihydroxy-10,13-dimethylhexadecahydro-1H-cyclopenta[a]phenanthren-17-yl)pentanamide] | 95.4 | 56.8 | 96.8 | – | – | – | – | –
15 | C[C@H](CCC(=O)NCc1cn(CC(=O)c2ccc(F)cc2)nn1)C1CCC2C3C(C[C@H](O)[C@@]21C)[C@@]1(C)CC[C@@H](O)CC1C[C@H]3O (stereo partly drawn) [6cd, (4R)-N-((1-(2-(4-Fluorophenyl)-2-oxoethyl)-1H-1,2,3-triazol-4-yl)methyl)-4-((3R,7R,10S,12S,13R)-3,7,12-trihydroxy-10,13-dimethylhexadecahydro-1H-cyclopenta[a]phenanthren-17-yl)pentanamide] | 88.7 | 70.7 | 97.5 | 137 to 138 | – | – | – | –
16 | CC(=O)O[C@@]12CO[C@@H]1C[C@H](O)[C@@]1(C)C(=O)[C@H](O)C3=C(C)[C@@H](OC(=O)[C@H](O)[C@@H](NC(=O)OC(C)(C)C)c4ccccc4)C[C@@](O)([C@@H](OC(=O)c4ccccc4)[C@H]21)C3(C)C [DTX, Docetaxel, reference compound] | 46.5 | 56.9 | – | – | – | 9.46 ± 0.98 | – | 13.8 ± 1.07
